The record followed here is PMC12775434, “Ultra-large virtual screening unveils potent agonists of the neuromodulatory orphan receptor GPR139” (Nature Communications, 2025).

Where “and” joins values, the source holds several entries; their conditions need not be identical. Equal values may be shown once.

Common to all, as to format: cell-based
In assay [1] the target is T1, GPR139 (Homo sapiens, UniProt Q6DWJ6).
T1 sequence (Q6DWJ6 1-353): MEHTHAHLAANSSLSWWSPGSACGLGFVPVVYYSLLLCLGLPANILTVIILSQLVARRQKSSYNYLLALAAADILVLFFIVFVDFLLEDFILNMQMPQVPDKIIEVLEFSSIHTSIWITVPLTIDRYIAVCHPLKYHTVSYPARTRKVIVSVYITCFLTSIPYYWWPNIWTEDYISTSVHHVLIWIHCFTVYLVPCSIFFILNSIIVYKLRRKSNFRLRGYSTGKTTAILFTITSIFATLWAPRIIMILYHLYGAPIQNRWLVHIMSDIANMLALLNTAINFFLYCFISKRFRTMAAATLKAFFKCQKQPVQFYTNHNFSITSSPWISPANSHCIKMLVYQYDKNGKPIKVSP
As to the kind of experiment: Ca2+ mobilization assay, agonist mode, stable GPR139-CHOk1 cell line. Conditions: for EC50 / Emax: Supplementary Table 2, mean ± SEM; for EC50: read-out: pEC50 Ca2+ (converted); for Emax: normalized to Lundbeck Cmp 1a, read-out: Emax (%) Ca2+. The method in brief: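 Agonist activity of compounds is assessed in stably transfected CHO-K1 cells using the calcium dye Fluo-4 at 37 °C in HEPES-buffered HBSS (pH 7.4). Efficacy is expressed relative to the reference agonist Lundbeck Cmp 1a, set as 100%.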
(In general: Calcium flux is commonly read through the fluorescence of an indicator in the cells.)

The target of assay [2] is T1, GPR139. Kind of assay: Ca2+ mobilization assay, antagonist mode (EC80 800 nM Lundbeck Cmp 1a after 20 min preincubation), GPR139-CHOk1. The method in brief: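 Fluo-4-loaded GPR139-CHOk1 cells in HEPES-buffered HBSS (pH 7.4, 2.5 mM probenecid) given test compounds at 10 µM, then after 20 min challenged with 800 nM Lundbeck Cmp 1a (EC80). Calcium fluorescence read at 37 °C, 485/525 nm.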

Assay [3] concerns the target T2, human muscarinic acetylcholine M1 receptor (M1R) (Homo sapiens, UniProt P11229).
T2 sequence (P11229 1-460): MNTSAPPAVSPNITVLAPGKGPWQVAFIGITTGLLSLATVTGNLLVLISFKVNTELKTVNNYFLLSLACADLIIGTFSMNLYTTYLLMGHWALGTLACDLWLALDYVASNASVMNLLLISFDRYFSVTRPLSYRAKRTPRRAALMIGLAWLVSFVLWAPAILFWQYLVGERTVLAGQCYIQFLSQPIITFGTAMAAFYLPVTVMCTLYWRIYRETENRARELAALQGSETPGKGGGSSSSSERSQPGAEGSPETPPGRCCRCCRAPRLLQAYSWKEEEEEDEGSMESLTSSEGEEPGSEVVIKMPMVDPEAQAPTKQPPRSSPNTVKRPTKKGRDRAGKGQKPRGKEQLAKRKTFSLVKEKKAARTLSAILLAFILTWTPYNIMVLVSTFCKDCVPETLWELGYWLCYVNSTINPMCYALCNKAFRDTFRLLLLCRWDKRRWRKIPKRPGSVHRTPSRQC
As to the kind of experiment: Ca2+ mobilization counter-screen in M1R-CHOk1 cells. On the procedure:
Primary screening and pharmacological characterization of compounds were performed using a CHO-K1 cell line that stably expresses human GPR139 (GPR139-CHOk1). The GPR139-CHOk1 cell line was kindly provided by H. Lundbeck A/S, Denmark[24]. GPR139-CHOk1 cells were grown in Ham’s F-12 Kaighn’s Modification Medium (ThermoFisher #21127030) supplemented with 10% dialyzed fetal bovine serum (US origin, ThermoFisher #26400044), 100 units/mL Penicillin-Streptomycin (ThermoFisher #15140122), and 1 mg/mL Geneticin (ThermoFisher #11811031). […] M1R-CHOk1 cells were purchased from The Missouri S&T cDNA Resource Center (#CEM100TN00). M1R-CHOk1 cells were grown in Ham’s F12 Medium (ThermoFisher #21765029) supplemented with 10% fetal bovine serum (Brazilian origin, ThermoFisher #10270106), 100 units/mL Penicillin-Streptomycin, and 0.25 mg/mL Geneticin. HEK293A cells transiently transfected with GPR139 were used for additional pharmacological assessment of signaling pathways activated by GPR139. HEK239A cells were generously provided by Dr. Asuka Inoue, Tohoku University, Japan. HEK293A cells were grown in Dulbecco’s Modified Eagle Medium (ThermoFisher #31966047) supplemented with 10% dialyzed fetal bovine serum and 100 units/mL Penicillin-Streptomycin. Cell lines were maintained at 37 °C in humidified incubator equilibrated with 5% CO2.
30,000 GPR139- or M1R-CHOk1 cells/well were seeded in black clear bottom tissue culture treated 96-well plates (Greiner #655090) and grown for 20–24 h. Cells were washed with HEPES buffer (Hank’s Balanced Salt Solution (HBBS) supplemented with 20 mM HEPES, 1 mM MgCl2, and 1 mM CaCl2; pH 7.4). Cells were loaded with 50 µL of 2 µM Fluo-4 AM dye (ThermoFisher #F14202) in HEPES buffer supplemented with 2.5 mM probenecid and 0.01% Pluronic F-68 (ThermoFisher #24040032) for 1 h at 37 °C. Cells were washed with HEPES buffer. 50 µL HEPES buffer supplemented with 2.5 mM probenecid was added, and the cells were incubated for 10 min at 37 °C before measurement. 50 µL test compounds diluted in HEPES buffer from DMSO stocks (final DMSO concentration of maximally 0.3%) were added automatically after baseline measurements. The intracellular calcium mobilization was measured on a FlexStation 3 Multimode Microplate Reader (Molecular Devices) at 37 °C with filters for excitation of 485 nm and emission of 525 nm.

The mark [4] stands for this setting: Agonist mode, individual replicates (Supplementary Figure 4).
[5] abbreviates: log [Compound] M = -4.5, individual replicate columns.
The mark [6] stands for this setting: log [Compound] M = -5.0, individual replicate columns.
The mark [7] stands for this setting: log [Compound] M = -5.5, individual replicate columns.
The mark [8] stands for this setting: log [Compound] M = -6.0, individual replicate columns.
The mark [9] stands for this setting: log [Compound] M = -6.5, individual replicate columns.
[10] abbreviates: log [Compound] M = -7.0, individual replicate columns.
[11] abbreviates: log [Compound] M = -7.5, individual replicate columns.
[12] abbreviates: log [Compound] M = -8.0, individual replicate columns.
Setting [13] is: log [Compound] M = -8.5, individual replicate columns.
Where [14] appears, read: log [Compound] M = -9.0, individual replicate columns.
The mark [15] stands for this setting: individual replicates (Supplementary Figure 4).
[16] abbreviates: individual replicates (Supplementary Figure 5).
The mark [17] stands for this setting: 0.1 µM, individual replicates (Supplementary Figure 3).
[18] abbreviates: 1 µM, individual replicates (Supplementary Figure 3).
[19] abbreviates: 10 µM, individual replicates (Supplementary Figure 3).
[20] abbreviates: Agonist mode, individual replicates (Supplementary Figure 1).
Setting [21] is: individual replicates (Supplementary Figure 1).
The mark [22] stands for this setting: individual replicates (Supplementary Figure 2).

As to `Cc1cnc2ccc(-c3nc(CC(=O)NC(C)c4ccccc4)no3)cn12` (centres unmarked) [Compound 1.40, CC(NC(=O)CC1=NOC(=N1)C=2C=CC3=NC=C(C)N3C2)C=4C=CC=CC4], the “Ca2+ signal (% of Cmp 1a)” value on GPR139 [1] (setting [4]) was 51 % of Cmp 1a and 56 % of Cmp 1a; at GPR139 [1] (setting [5]), 93 % of Cmp 1a and 71 % of Cmp 1a and 89 % of Cmp 1a; at GPR139 [1] (setting [6]) it was 80 % of Cmp 1a and 64 % of Cmp 1a and 78 % of Cmp 1a; on GPR139 [1] (setting [7]) it was 57 % of Cmp 1a and 35 % of Cmp 1a and 53 % of Cmp 1a; at GPR139 [1] (setting [8]), 32 % of Cmp 1a and 13 % of Cmp 1a and 17 % of Cmp 1a; at GPR139 [1] (setting [9]), 17 % of Cmp 1a and -10 % of Cmp 1a and -16 % of Cmp 1a. The “Ca2+ signal (% of Cmp 1a)” value at GPR139 [1] (setting [10]) was 21 % of Cmp 1a and -2.33 % of Cmp 1a and -20 % of Cmp 1a; on GPR139 [1] (setting [11]), 0 % of Cmp 1a and 1.33 % of Cmp 1a and 22 % of Cmp 1a; on GPR139 [1] (setting [12]) it was 11 % of Cmp 1a and 0.667 % of Cmp 1a and 28 % of Cmp 1a; at GPR139 [1] (setting [13]), 16 % of Cmp 1a and -6.33 % of Cmp 1a and 31 % of Cmp 1a; on GPR139 [1] (setting [14]) it was 20 % of Cmp 1a and -7 % of Cmp 1a and 0.667 % of Cmp 1a; at GPR139 [2] (setting [15]), 23 % of Cmp 1a and 31 % of Cmp 1a and 12 % of Cmp 1a. Moreover, the “change in potency with larger substituents on the thiophene ring” value on GPR139 [1] (Ca2+ mobilization) is recorded as “three-fold reduction to a complete loss of activity”. Further, the EC50 at GPR139 [1] is 3.16 µM. Further, on GPR139 [1], the Emax (as a rule, the greatest response seen or fitted, relative to the assay's reference) stood at 86 ± 7%. Further, the “Ca2+ signal (% of Carbachol)” value in assay [3] (setting [16]) is -14 % of Carbachol and -5 % of Carbachol and -4.33 % of Carbachol.

Consider `CN(Cc1cc(Cl)cn1C)C(=O)CCC(=O)c1cccs1` [Compound 11, CN(CC1=CC(Cl)=CN1C)C(=O)CCC(=O)C2=CC=CS2], for which the “Ca2+ signal (% of Cmp 1a)” value on GPR139 [1] (setting [17]) is 1.5 % of Cmp 1a and 12.7 % of Cmp 1a; at GPR139 [1] (setting [18]) it was -6.5 % of Cmp 1a and 1.1 % of Cmp 1a; at GPR139 [1] (setting [19]) it was 13.9 % of Cmp 1a and 12.8 % of Cmp 1a; on GPR139 [1] (setting [20]), 40 % of Cmp 1a and 30 % of Cmp 1a and 33 % of Cmp 1a; at GPR139 [1] (primary screen, 10 µM compound, agonist mode, three columns = independent experiments), 40 % of Cmp 1a and 30 % of Cmp 1a and 33 % of Cmp 1a; at GPR139 [2] (setting [21]), 63.3528 % of Cmp 1a and 60.457 % of Cmp 1a and 64.2066 % of Cmp 1a. Further, the “Ca2+ signal (% of Carbachol)” value in assay [3] (setting [22]) is -4 % of Carbachol and 17 % of Carbachol.

As to `Cc1ccc(-c2nc(CC(=O)NC(C)c3ccccc3)no2)s1` (centres unmarked) [Compound 1.9, CC(C1=CC=CC=C1)NC(CC2=NOC(C3=CC=C(S3)C)=N2)=O], the “Ca2+ signal (% of Cmp 1a)” value was 88 % of Cmp 1a and 93 % of Cmp 1a and 63 % of Cmp 1a on GPR139 [1] (setting [4]); 76 % of Cmp 1a and 96 % of Cmp 1a and 87 % of Cmp 1a and 68 % of Cmp 1a at GPR139 [1] (setting [5]); 86 % of Cmp 1a and 100 % of Cmp 1a and 93 % of Cmp 1a and 70 % of Cmp 1a on GPR139 [1] (setting [6]); 70 % of Cmp 1a and 105 % of Cmp 1a and 84 % of Cmp 1a and 64 % of Cmp 1a on GPR139 [1] (setting [7]); 66 % of Cmp 1a and 73 % of Cmp 1a and 71 % of Cmp 1a and 65 % of Cmp 1a at GPR139 [1] (setting [8]); 37 % of Cmp 1a and 55 % of Cmp 1a and 47 % of Cmp 1a and 52 % of Cmp 1a on GPR139 [1] (setting [9]). The “Ca2+ signal (% of Cmp 1a)” value on GPR139 [1] (setting [10]) is 12 % of Cmp 1a and 23 % of Cmp 1a and 28 % of Cmp 1a and 35 % of Cmp 1a; at GPR139 [1] (setting [11]), 2.33 % of Cmp 1a and 12 % of Cmp 1a and 15 % of Cmp 1a and 9 % of Cmp 1a; at GPR139 [1] (setting [12]), -1.67 % of Cmp 1a (2×) and -4 % of Cmp 1a and 0 % of Cmp 1a; on GPR139 [1] (setting [13]), -4.67 % of Cmp 1a and -2 % of Cmp 1a (2×) and 2 % of Cmp 1a; on GPR139 [1] (setting [14]), -5 % of Cmp 1a and 7 % of Cmp 1a and -15 % of Cmp 1a and -4.33 % of Cmp 1a; at GPR139 [2] (setting [15]), 1.67 % of Cmp 1a and 13 % of Cmp 1a. For the same compound, at GPR139 [1], the EC50 was 0.2 µM. Besides, at GPR139 [1], the Emax was determined as 86 ± 8%. In addition, the “Ca2+ signal (% of Carbachol)” value in assay [3] (setting [16]) was -5 % of Carbachol and 6 % of Carbachol.

Consider `CCOc1ccc(C(=O)OCC(=O)N[C@H](C)c2ccccc2)cc1` [Compound 14, CCOC=1C=CC(=CC1)C(=O)OCC(=O)N[C@H](C)C=2C=CC=CC2], for which the “Ca2+ signal (% of Cmp 1a)” value at GPR139 [1] (setting [17]) was 1.0 % of Cmp 1a and -0.9 % of Cmp 1a; on GPR139 [1] (setting [18]), -7.4 % of Cmp 1a and 2.7 % of Cmp 1a; on GPR139 [1] (setting [19]) it was 15.1 % of Cmp 1a and 12.7 % of Cmp 1a; at GPR139 [1] (setting [20]), 37 % of Cmp 1a and 14 % of Cmp 1a and 31 % of Cmp 1a; on GPR139 [2] (setting [21]), 75.8591 % of Cmp 1a and 82.1128 % of Cmp 1a and 79.0278 % of Cmp 1a. Moreover, in assay [3] (setting [22]), the “Ca2+ signal (% of Carbachol)” value was -14 % of Carbachol and 13 % of Carbachol.
